According to the supplement of paper PMC10307832:

Tests used:
Test in all cases: relative viability (nuclei count vs DMSO), 5 days (fraction); higher = more cells survive
[1] = compound: C[C@]12O[C@H](C[C@]1(O)CO)n1c3ccccc3c3c4c(c5c6ccccc6n2c5c31)CNC4=O [Lestaurtinib] + COc1cccc2cc(-c3nc([C@H]4CC[C@H](C(=O)O)CC4)n4ncnc(N)c34)[nH]c12 [OSI-027] (partner 0.5 µM)
In short: (§1)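 One day after seeding in 1536-well plates, lung cancer cell lines were dosed by pin tool. Dosing was either single-drug or a fixed anchor-drug dose plus five library-drug doses (not always all listed) in √10 steps. After 5 days, nuclei were stained in one fix-and-stain step and counted on 4× images, and relative viability is the nuclei count of treated wells over that of vehicle wells, given as the median of duplicate plates.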

[2] = compound: C1/C(=C\C2=CC=CS2)/C(=O)/C(=C/C3=CC=CS3)/C1 + COc1cccc2cc(-c3nc([C@H]4CC[C@H](C(=O)O)CC4)n4ncnc(N)c34)[nH]c12 [OSI-027] (partner 0.5 µM)
In short: as §1

[3] = compound: C[C@]12O[C@H](C[C@]1(O)CO)n1c3ccccc3c3c4c(c5c6ccccc6n2c5c31)CNC4=O [Lestaurtinib] + N=C(N)NC(=N)NCCc1ccccc1 [Phenformin] (partner 250 µM)
In short: as §1

[4] = compound: C1=CC(=CC=C1C2=CC(=C(S2)NC(=O)N)C(=O)N)F [TPCA-1] + NC(=O)Nc1cc(-c2cccc(F)c2)sc1C(=O)N[C@H]1CCCNC1 [AZD7762] (partner 0.2 µM)
In short: as §1

Cell Line | relative viability ([1]; first compound 0.005 µM) | relative viability ([1]; first compound 0.01581 µM) | relative viability ([1]; first compound 0.05 µM) | relative viability ([1]; first compound 0.1581 µM) | relative viability ([1]; first compound 0.5 µM) | relative viability ([2]; first compound 0.2 µM) | relative viability ([2]; first compound 0.6325 µM) | relative viability ([2]; first compound 2 µM) | relative viability ([2]; first compound 6.325 µM) | relative viability ([2]; first compound 20 µM) | relative viability ([3]; first compound 0.005 µM) | relative viability ([3]; first compound 0.01581 µM) | relative viability ([3]; first compound 0.05 µM) | relative viability ([3]; first compound 0.1581 µM) | relative viability ([3]; first compound 0.5 µM) | relative viability ([4]; first compound 0.04 µM) | relative viability ([4]; first compound 0.1265 µM) | relative viability ([4]; first compound 0.4 µM) | relative viability ([4]; first compound 1.265 µM) | relative viability ([4]; first compound 4 µM)
SK-LU-1 | 0.296 | 0.255 | 0.211 | 0.295 | 0.181 | 0.36 | 0.388 | 0.398 | 0.315 | 0.396 | 0.46 | 0.488 | 0.293 | 0.329 | 0.163 |  |  |  |  | 
LOU-NH91 | 0.728 | 0.711 | 0.637 | 0.574 | 0.424 | 0.733 | 0.722 | 0.769 | 0.648 | 0.714 | 0.677 | 0.722 | 0.647 | 0.506 | 0.362 | 0.781 | 0.719 | 0.724 | 0.68 | 0.697
LXF-289 | 0.805 | 0.677 | 0.491 | 0.536 | 0.391 | 0.869 | 0.811 | 0.852 | 0.696 | 0.729 | 0.515 | 0.498 | 0.42 | 0.302 | 0.213 | 1.1 | 1.09 | 1.1 | 1.07 | 0.774
HARA | 0.629 | 0.469 | 0.324 | 0.278 | 0.104 | 0.525 | 0.437 | 0.502 | 0.379 | 0.57 | 0.507 | 0.477 | 0.369 | 0.358 | 0.251 | 0.317 | 0.504 | 0.39 | 0.471 | 0.349
LU99A | 0.288 | 0.263 | 0.262 | 0.249 | 0.203 | 0.329 | 0.286 | 0.33 | 0.322 | 0.291 | 0.819 | 0.76 | 0.627 | 0.438 | 0.315 | 0.356 | 0.364 | 0.412 | 0.281 | 0.247
201T | 0.766 | 0.982 |  | 0.63 | 0.447 | 0.691 | 0.753 | 0.82 | 0.662 | 0.69 | 0.467 | 0.491 | 0.363 | 0.418 | 0.278 | 0.704 | 0.63 | 0.627 | 0.582 | 0.558
HCC-827 | 0.781 | 0.727 | 0.459 | 0.626 | 0.659 | 0.813 | 0.767 | 0.809 | 0.737 | 0.695 | 0.359 | 0.44 | 0.36 | 0.316 | 0.265 | 0.209 | 0.209 | 0.227 | 0.224 | 0.181
NCI-H1666 | 0.904 | 0.934 | 0.917 | 0.757 | 0.518 | 0.874 | 0.863 | 0.83 | 0.732 | 0.964 | 0.613 | 0.617 | 0.668 | 0.561 | 0.389 | 0.895 | 0.659 | 0.79 | 0.714 | 0.757
NCI-H1915 | 0.687 | 0.477 | 0.42 | 0.337 | 0.246 | 0.636 | 0.632 | 0.657 | 0.249 | 0.681 | 0.349 | 0.37 | 0.311 | 0.34 | 0.204 | 0.744 | 0.679 | 0.671 | 0.588 | 0.617
NCI-H2009 | 0.578 | 0.449 | 0.365 | 0.441 | 0.24 | 0.622 | 0.755 | 0.707 | 0.557 | 0.607 | 0.51 | 0.46 | 0.437 | 0.465 | 0.235 |  |  |  |  | 
ChaGo-K-1 | 0.608 | 0.626 | 0.5 | 0.376 | 0.373 | 0.549 | 0.59 | 0.588 | 0.491 | 0.268 | 0.484 | 0.447 | 0.448 | 0.333 | 0.275 | 0.869 | 0.883 | 0.904 | 0.8 | 0.522
COR-L 105 | 0.616 | 0.696 | 0.565 | 0.441 | 0.23 | 0.679 | 0.849 | 0.781 |  | 0.632 | 0.465 | 0.476 | 0.371 | 0.353 | 0.238 |  |  |  |  | 
NCI-H2170 | 0.726 | 0.523 | 0.45 | 0.561 | 0.471 | 0.713 | 0.728 | 0.77 | 0.416 | 0.785 | 0.41 | 0.424 | 0.42 | 0.32 | 0.244 | 1.13 | 0.815 | 0.892 | 0.766 | 0.474
A549 |  |  |  |  |  |  |  |  |  |  | 0.204 | 0.141 | 0.16 | 0.1 | 0.045 |  |  |  |  | 
SW 1573 | 0.67 | 0.561 | 0.482 | 0.449 | 0.131 | 0.603 | 0.724 | 0.756 | 0.599 | 0.617 | 0.421 | 0.439 | 0.214 | 0.28 | 0.0937 |  |  |  |  | 
